Test results published in patent US8940771B2, “Organic compounds” (Novartis AG, priority 2007, dated 2015).

Legend:
Assay type in all cases: biochemical
[1] = molecular target: PI3Kα (p85iSH2(461-568)-p110α(21-1068)-His, BV1075) (Homo sapiens (Human), UniProt P42336); test: PI3K KinaseGlo assay, PI3Kalpha; conditions: for IC50: KinaseGlo, 1 μM ATP; for Selectivity PI3Kalpha vs. PI3Kdelta: ratio of PI3Kdelta IC50 to PI3Kalpha IC50
[2] = molecular target: PI3Kδ (p85iSH2(461-568)-p110δ(2-1044)-His, BV1060) (Homo sapiens (Human), UniProt O00329); test: PI3K KinaseGlo assay, PI3Kdelta; conditions: 1 μM ATP, alpha vs. delta selectivity table
Sequence of PI3Kδ (p85iSH2(461-568)-p110δ(2-1044)-His, BV1060) (O00329 other isoform, or with tags, fused parts or gaps): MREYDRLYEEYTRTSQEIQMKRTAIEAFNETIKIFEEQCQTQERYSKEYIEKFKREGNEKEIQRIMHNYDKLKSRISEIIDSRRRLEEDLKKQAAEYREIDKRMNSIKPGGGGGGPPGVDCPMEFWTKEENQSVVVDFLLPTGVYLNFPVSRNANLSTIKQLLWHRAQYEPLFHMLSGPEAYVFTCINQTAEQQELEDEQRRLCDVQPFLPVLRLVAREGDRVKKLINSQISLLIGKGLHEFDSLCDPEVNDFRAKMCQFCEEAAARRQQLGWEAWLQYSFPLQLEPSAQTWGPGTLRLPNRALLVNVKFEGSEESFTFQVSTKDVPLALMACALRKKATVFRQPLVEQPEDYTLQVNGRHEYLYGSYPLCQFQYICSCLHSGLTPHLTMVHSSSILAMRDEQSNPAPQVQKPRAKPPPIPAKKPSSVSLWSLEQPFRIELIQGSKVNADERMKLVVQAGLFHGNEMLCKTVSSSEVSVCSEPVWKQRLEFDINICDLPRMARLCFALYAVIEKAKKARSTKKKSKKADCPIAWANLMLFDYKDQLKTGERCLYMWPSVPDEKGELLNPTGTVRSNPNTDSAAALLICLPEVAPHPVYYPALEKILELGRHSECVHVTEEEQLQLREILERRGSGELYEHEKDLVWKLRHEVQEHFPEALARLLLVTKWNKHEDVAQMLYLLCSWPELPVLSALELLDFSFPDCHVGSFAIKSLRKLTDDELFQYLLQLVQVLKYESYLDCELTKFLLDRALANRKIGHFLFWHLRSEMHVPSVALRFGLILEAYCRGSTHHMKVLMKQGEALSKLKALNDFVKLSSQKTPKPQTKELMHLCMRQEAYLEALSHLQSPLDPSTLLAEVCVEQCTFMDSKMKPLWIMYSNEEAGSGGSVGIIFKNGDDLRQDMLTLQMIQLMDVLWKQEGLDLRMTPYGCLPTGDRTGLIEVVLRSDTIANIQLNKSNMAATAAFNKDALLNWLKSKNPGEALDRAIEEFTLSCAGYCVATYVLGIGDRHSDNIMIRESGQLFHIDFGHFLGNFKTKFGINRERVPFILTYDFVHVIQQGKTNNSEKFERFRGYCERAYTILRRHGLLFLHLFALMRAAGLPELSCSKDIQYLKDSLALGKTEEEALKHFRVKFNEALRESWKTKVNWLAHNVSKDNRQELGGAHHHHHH

[3] = molecular target: PI3Kγ (p110γ(Δ143-[Met144-1102])-His, BV950) (Homo sapiens (Human), UniProt P48736); test: PI3K KinaseGlo assay, PI3Kgamma; conditions: 1 μM ATP, four-isoform table
Sequence of PI3Kγ (p110γ(Δ143-[Met144-1102])-His, BV950) (P48736 other isoform, or with tags, fused parts or gaps): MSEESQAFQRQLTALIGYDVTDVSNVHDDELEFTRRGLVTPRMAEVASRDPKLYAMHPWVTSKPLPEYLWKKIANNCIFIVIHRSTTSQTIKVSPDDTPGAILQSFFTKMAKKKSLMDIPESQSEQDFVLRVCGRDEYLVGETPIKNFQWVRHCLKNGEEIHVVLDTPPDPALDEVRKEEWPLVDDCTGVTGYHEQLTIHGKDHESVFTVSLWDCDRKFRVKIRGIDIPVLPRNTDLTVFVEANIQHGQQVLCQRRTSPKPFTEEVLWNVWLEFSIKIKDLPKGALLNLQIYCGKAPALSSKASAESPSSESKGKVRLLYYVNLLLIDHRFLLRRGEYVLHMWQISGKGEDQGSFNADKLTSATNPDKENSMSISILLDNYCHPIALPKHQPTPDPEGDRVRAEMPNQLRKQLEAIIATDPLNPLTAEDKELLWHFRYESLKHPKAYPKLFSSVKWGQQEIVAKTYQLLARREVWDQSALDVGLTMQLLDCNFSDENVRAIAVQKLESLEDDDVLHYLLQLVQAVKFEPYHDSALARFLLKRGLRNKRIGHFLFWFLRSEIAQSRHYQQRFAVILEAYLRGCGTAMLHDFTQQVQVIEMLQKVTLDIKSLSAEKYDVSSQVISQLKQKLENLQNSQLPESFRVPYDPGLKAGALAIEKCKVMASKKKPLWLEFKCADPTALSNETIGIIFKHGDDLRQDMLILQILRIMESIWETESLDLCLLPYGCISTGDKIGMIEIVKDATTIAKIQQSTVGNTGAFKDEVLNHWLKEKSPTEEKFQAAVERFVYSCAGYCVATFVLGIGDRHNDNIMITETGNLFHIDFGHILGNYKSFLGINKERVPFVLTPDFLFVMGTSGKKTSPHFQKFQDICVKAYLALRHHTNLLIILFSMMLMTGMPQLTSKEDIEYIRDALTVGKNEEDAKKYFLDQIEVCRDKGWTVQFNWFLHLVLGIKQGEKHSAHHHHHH

[4] = alpha vs. delta selectivity table

Sequence of PI3Kα (p85iSH2(461-568)-p110α(21-1068)-His, BV1075) (P42336 other isoform, or with tags, fused parts or gaps): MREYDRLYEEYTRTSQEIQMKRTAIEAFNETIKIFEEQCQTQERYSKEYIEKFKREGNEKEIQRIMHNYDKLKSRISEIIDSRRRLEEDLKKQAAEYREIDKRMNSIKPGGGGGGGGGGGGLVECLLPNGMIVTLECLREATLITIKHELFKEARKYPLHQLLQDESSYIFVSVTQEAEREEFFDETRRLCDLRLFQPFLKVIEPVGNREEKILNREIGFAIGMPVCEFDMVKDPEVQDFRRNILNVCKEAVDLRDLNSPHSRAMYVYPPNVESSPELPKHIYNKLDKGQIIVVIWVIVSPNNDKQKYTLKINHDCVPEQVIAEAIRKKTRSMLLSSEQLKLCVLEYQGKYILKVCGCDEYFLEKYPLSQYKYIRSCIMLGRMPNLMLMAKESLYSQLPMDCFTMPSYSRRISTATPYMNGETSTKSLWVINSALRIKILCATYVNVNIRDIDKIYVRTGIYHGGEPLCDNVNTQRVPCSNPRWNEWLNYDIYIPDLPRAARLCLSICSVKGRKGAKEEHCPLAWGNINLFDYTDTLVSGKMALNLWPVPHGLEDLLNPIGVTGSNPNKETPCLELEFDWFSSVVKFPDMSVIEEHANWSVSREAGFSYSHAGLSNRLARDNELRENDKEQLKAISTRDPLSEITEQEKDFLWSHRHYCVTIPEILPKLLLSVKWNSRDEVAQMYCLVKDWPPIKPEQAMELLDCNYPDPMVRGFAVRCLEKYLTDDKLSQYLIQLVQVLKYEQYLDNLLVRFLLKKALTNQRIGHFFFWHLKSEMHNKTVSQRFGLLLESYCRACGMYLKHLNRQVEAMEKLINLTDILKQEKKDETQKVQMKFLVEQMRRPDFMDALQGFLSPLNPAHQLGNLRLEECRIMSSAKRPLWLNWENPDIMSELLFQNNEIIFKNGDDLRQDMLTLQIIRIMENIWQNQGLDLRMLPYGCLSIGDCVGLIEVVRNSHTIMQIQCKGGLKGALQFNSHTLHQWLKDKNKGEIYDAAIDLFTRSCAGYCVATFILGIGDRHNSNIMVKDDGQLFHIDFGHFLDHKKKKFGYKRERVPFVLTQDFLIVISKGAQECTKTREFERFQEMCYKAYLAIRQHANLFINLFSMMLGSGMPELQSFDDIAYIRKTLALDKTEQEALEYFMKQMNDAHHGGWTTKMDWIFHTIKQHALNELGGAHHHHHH

Row | SMILES | IC50 [1, 4] [µM] | Selectivity PI3Kalpha vs. PI3Kdelta [1] | IC50 [2] [µM] | IC50 [3] [µM] | IC50 ([1]; 10 nM enzyme, 30 mins) [µM]
1 | Cc1nc(NC(=O)N2CCC[C@@]2(C)C(N)=O)sc1-c1ccnc(C(C)(C)C)n1 [Example 12, (S)-2-methyl-pyrrolidine-1,2-dicarboxylic acid 2-amide 1-{[5-(2-tert-butyl-pyrimidin-4-yl)-4-methyl-thiazol-2-yl]-amide}] | 0.015 | 65-fold | 0.974 |  | 
2 | Cc1nc(NC(=O)N2CCC[C@@]2(C)C(N)=O)sc1-c1csc(CC2CC2)n1 [Example 151, (S)-2-Methyl-pyrrolidine-1,2-dicarboxylic acid 2-amide 1-[(2-cyclopropylmethyl-4′-methyl-[4,5′]bithiazolyl-2′-yl)-amide]] |  |  |  | 0.928 | 
3 | Cc1nc(NC(=O)N2C[C@@H](F)C[C@H]2C(N)=O)sc1-c1ccnc(C(C)(C)C)n1 [Example 66] | 0.04 | 32-fold | 1.27 |  | 0.04
